Experimental data taken from paper PMC9550238, “Novel TRKB agonists activate TRKB and downstream ERK and AKT signaling to protect Aβ-GFP SH-SY5Y cells against Aβ toxicity” (Aging (Albany NY), 2022).
Read-outs that look alike come from different tables or passages of the source. One block for each molecule: values may come before it.

Experiments:
[1] = in vitro; format: in vitro ADME; conditions: for Papp at 18 h, 1 μM: PAMPA
Experimental: The permeability of LMDS-1 and -2 was determined by a PAMPA-BBB assay. Firstly, 300 μl of LMDS-1 or -2 (1 μM) solution were added to the donor well (Millipore). Bupropion (a high permeability marker), piroxicam (a low permeability marker), and lucifer yellow (an integrity marker) (Sigma-Aldrich) were used as quality control (QC) compounds for comparison. The sandwich with aqueous donor on the bottom, artificial lipid membrane (PVDF filter coated with porcine polar brain lipid) in the middle, and aqueous acceptor (5% DMSO in PBS) on the top was assembled as stated. Each compound was tested in triplicate. After incubation for 18 h at the ambient temperature, the PAMPA sandwich plate was separated. The concentrations of test and QC compounds in the donor and acceptor wells were measured as stated, and the effective permeability coefficient (Pe) was computed.

[2] = tested on: Aβ-GFP SH-SY5Y cells; assay: Aβ folding reporter GFP fluorescence; format: cell-based, Human; conditions: for intensity of GFP fluorescence: untreated cells 100%; for EC50: Homo sapiens, 144 h, Aβ-GFP SH-SY5Y cells, compounds 1.2–5 μM, Dox 6 days, read-out: Aβ aggregation inhibition EC50 (GFP fluorescence)
Experimental: Human neuroblastoma SH-SY5Y-derived Aβ-GFP cells were maintained as stated. The recombinant Aβ-GFP protein has a 12 amino acid-containing linker between the fused Aβ and GFP. Doxycycline (5 μg/ml; Sigma-Aldrich) was used to induce Aβ-GFP expression.
Neuronal differentiation of Aβ-GFP SH-SY5Y cells was induced by retinoic acid (10 μM; Sigma-Aldrich). Cells on 96-well plate (2.5 × 10^4/well) were seeded on day 1, pre-treated with test compounds (1.2–5 μM) plus induced Aβ-GFP expression (5 μg/ml doxycycline) on day 2, and stained with Hoechst 33342 (0.1 μg/ml; Sigma-Aldrich) on day 8 as stated. Cell images were then captured at 482 nm excitation/536 nm emission wavelengths (ImageXpress Micro Confocal high-content system) and analyzed (MetaXpress image acquisition and analysis software) (Molecular Devices, Sunnyvale, CA, USA). In addition, ROS was quantified on day 8 following CellROX Deep Red stain (5 μM; Molecular Probes, Waltham, MA, USA) using the high-content system with excitation/emission wavelengths of 644/665 nm.

[3] = molecular target: T1, Aβ42 peptide (Homo sapiens, UniProt P05067); assay: Thioflavin T Aβ aggregation inhibition assay; format: biochemical; conditions: Aβ42, compounds 5–20 μM
T1 construct: assessed by using Aβ42 peptide (AnaSpec, Fremont, CA, USA); purchased AnaSpec
T1 sequence (P05067 672-713 limits assumed): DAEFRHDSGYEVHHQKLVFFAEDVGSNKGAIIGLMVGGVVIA
Experimental: (§1) Thioflavin T is widely used to visualize and quantify the presence of misfolded amyloid protein aggregates in vitro [59]. […] In addition, DPPH radical (Sigma-Aldrich) was used to assay the free radical scavenging capacity of kaempferol, LM-031 and analogs (10–160 μM) as stated.

[4] = DPPH free radical scavenging assay; format: biochemical; conditions: compounds 10–160 μM
Experimental: as §1

[5] = tested on: Aβ-GFP SH-SY5Y cells; assay: Neurite outgrowth analysis; format: cell-based, Human; conditions: 5 μM; induced untreated 3.0, uninduced 3.9
Experimental: (§2) As stated, Aβ-GFP SH-SY5Y cells were seeded (6 × 10^4/24-well) with retinoic acid addition on day 1, treated with tested compounds (5 μM) plus induced Aβ-GFP expression (5 μg/ml doxycycline) on day 2, and stained with TUBB3 (tubulin beta 3 class III) primary antibody (1:1000; Covance #MMS-435P, Princeton, NJ, USA), goat anti-rabbit Alexa Fluor® 555 secondary antibody (1:1000; Thermo Fisher Scientific #A27039), and DAPI (4′-6-diamidino-2-phenylindole, 0.1 μg/ml; Sigma-Aldrich) on day 8 [60]. Neuronal pictures were taken using the high-content system and analyzed for neurite length (μm), process (number of neurites protruding from neuronal cell body) and branch (number of neurites extending from process) (MetaXpress neurite outgrowth application module; Molecular Devices). In each of three independent experiments, roughly 6000 cells from each sample were examined.

[6] = tested on: Aβ-GFP SH-SY5Y cells; assay: TRKB RNA interference, neurite outgrowth; format: cell-based, Human; conditions: 5 μM
Experimental: as §2
To knock down TRKB expression in Aβ-GFP SH-SY5Y cells, lentiviral short hairpin RNA (shRNA) targeting TRKB and control (scrambled) were used. Cells were plated in the presence of retinoic acid (5 × 10^5/6-well for protein analysis or 6 × 10^4/24-well for neurite outgrowth analysis) on day 1, infected with lentivirus on day 2, pretreated with test compound (5 μM) plus inducing Aβ-GFP expression on day 3, and collected for neurite outgrowth or TRKB protein analysis on day 9 as stated.

[7] = design: method as in PMID 32496635; conditions: cited from earlier work
[8] = tested on: Aβ-GFP SH-SY5Y cells; assay: Comparison of BDNF and LMDS compounds on TRKB signaling, immunoblot; format: cell-based, Human; conditions: 5 μM
Experimental: (§3) Total proteins from Aβ-GFP SH-SY5Y cells were prepared, quantified, electrophoretically separated and blotted as stated. Following blocking, the membrane was probed with antibody against BDNF (1:500; Santa Cruz Biotechnology #sc-546, Santa Cruz, CA, USA), BCL2 (1:200; Santa Cruz Biotechnology #sc-7382), BAX (1:200; Santa Cruz Biotechnology #sc-7480), TRKB (1:500; Cell Signaling Technology #4603, Danvers, MA, USA), p-TRKB (Y516) (1:200; GeneTex #GTX32230, Irvine, CA, USA), p-TRKB (Y816) (1:1000; Millipore #ABN1381, Billerica, MA, USA), ERK (1:1000; Cell Signaling Technology #9102), p-ERK (T202/Y204) (1:1000; Cell Signaling Technology #9101), AKT (1:1000; Abcam #ab126811, Cambridge, CB, UK), p-AKT (S473) (1:1000; Cell Signaling Technology #4060), CREB (1:500; Santa Cruz Biotechnology #sc-186), p-CREB (S133) (1:1000; Millipore #06-519), or loading control GAPDH (glyceraldehyde-3-phosphate dehydrogenase) (1:1000; MDBio #30000002, Taipei, Taiwan). The immune complexes were detected as stated.

[9] = tested on: Aβ-GFP SH-SY5Y cells; assay: ERK/PI3K kinase inhibitor treatment, immunoblot of TRKB downstream targets; format: cell-based, Human; conditions: 5 μM; induced untreated 61–64%
[10] = tested on: Aβ-GFP SH-SY5Y cells; assay: as above; format: cell-based, Human
Experimental: Cells were plated in the presence of retinoic acid (5 × 10^5/6-well) on day 1, treated with tested compounds (5 μM) plus induced Aβ-GFP expression with doxycycline (5μg/ml) on day 2, as stated. Kinase inhibitors U0126 (an inhibitor of ERK) or wortmannin (an inhibitor of PI3K) (LC Laboratories, Woburn, MA, USA) (10 μM) were added on day 6. The cells were collected on day 8 for BDNF, BCL2, BAX, total/phosphorylated TRKB, ERK, AKT, and CREB protein analysis as previously stated.
as §3

[11] = 5 μM plus U0126 or wortmannin 10 μM
[12] = 5 μM, no kinase inhibitor, induced untreated 70–71%

EC50 [2]: 5.9 µM | EC50 [3]: 9 µM | EC50 [4]: 104 µM
SMILES: O=C(c1ccccc1)c1cc2c(O)cccc2oc1=O [LM-031, 3-benzoyl-5-hydroxychromen-2-one]
neurite process ([6]; scrambled shRNA, induced untreated 2.6): 3.8 | neurite process ([6]; shRNA targeting TRKB): 2.5 | neurite process [5]: 3.7–3.8 | intensity of GFP fluorescence ([2]; 1.2–5 μM): 111–149% | Measured Pe ([7]; PAMPA-BBB): 4.80 ± 0.12 10^−6 cm/s | PAMPA-BBB classification ([7]; from Pe of ref 34): BBB^+ (high)

PAMPA-BBB classification [1]: BBB^+ (high) | Papp at 18 h, 1 μM [1]: 14.9 ± 3.61 ×10⁻⁶ cm/s | EC50 [2]: 6 µM | EC50 [3]: < 5 µM | EC50 [4]: 117 µM
SMILES: CCOc1ccc2cc(C(=O)c3ccccc3)c(=O)oc2c1 [LMDS-1]
p-CREB ([8]; induced untreated 42%): 85–97% | p-ERK ([8]; induced untreated 64%): 94–111% | p-AKT ([8]; induced untreated 65%): 115–118% | p-TRKB Y516 and Y817 [9]: 113–123% | intensity of GFP fluorescence ([2]; 1.2–5 μM): 111–149% | p-ERK level ([10]; 5 μM plus U0126 10 μM): 38–43% | BAX [10, 11]: 152–191% | BCL2 [10, 11]: 80–121% | p-CREB [10, 11]: 52–84% | pro- and m-BDNF [10, 11]: 65–88% | BCL2 ([10]; 5 μM, induced untreated 44%): 156–199% | p-CREB ([10]; 5 μM, induced untreated 66%): 127–142% | pro- and m-BDNF ([10]; 5 μM, induced untreated 68–52%): 100–169% | BAX ([10]; 5 μM, induced untreated 225%): 121–130% | p-AKT level [10, 12]: 110–111% | p-ERK level [10, 12]: 115%

More lines, now with the values behind:

SMILES: CC(NC(C)(C)C)C(=O)c1cccc(Cl)c1 (stereo not drawn) [Bupropion, bupropion, reference compound]
Papp at 18 h, 1 μM [1]: 17.1 ± 1.09 ×10⁻⁶ cm/s

SMILES: O=c1ccc2ccccc2o1 [Coumarin, coumarin, reference compound]
intensity of GFP fluorescence ([2]; 1.2–5 μM): 113–140% | EC50 [2]: 9.8 µM | EC50 [3]: 25 µM | EC50 [4]: 179 µM

SMILES: COc1cc(/C=C/C(=O)CC(=O)/C=C/c2ccc(O)c(OC)c2)ccc1O [Curcumin, curcumin, reference compound]
neurite process [5]: 3.7–3.8 | intensity of GFP fluorescence ([2]; 2.5–5 μM): 113–140% | EC50 [2]: 6.1 µM

SMILES: O=c1c(O)c(-c2ccc(O)cc2)oc2cc(O)cc(O)c12 [Kaempferol, kaempferol, reference compound]
EC50 [4]: 28 µM
